Results on three compounds are retold here after PMC5458211, “Mitochondrial VDAC1-based peptides: Attacking oncogenic properties in glioblastoma” (Oncotarget, 2017).

One assay relates to U-118MG cells. Put plainly: Cell death by PI staining and flow cytometry, U-118MG. The format is cell-based, human. The following applies: 6 h at 37°C, serum-free medium, means ± SD (n=3), Fig 1H, read-out: IC50 for inducing cell death. From the text:
Figure 1 VDAC1-based peptides induce dramatic cell death of several brain tumor-derived cell lines but to lesser extent in primary brain cells A. IHC staining of VDAC1 of human normal brain (n=13) or glioblastoma (n=41) in tissue array slides (Biomax), as described in Materials and methods available online in Supplemental information. Percentages of sections stained at the intensity indicated are shown. […] The VDAC1-derived sequences Δ(1-14)N-terminus and LP4 are in green and pink, respectively. The cell-penetrating peptides Antp and Tf are in orange and blue, respectively. The loop shape of LP4 stabilized by a tryptophan zipper is in purple. The amino acids of Δ(1-14)N-terminus, LP4 and Antp are in the D configuration. The sequences of D-LP4 and Retro-D-LP4 are presented below. C. […] Cells were harvested, washed twice with PBS and cell death was analyzed by propidium iodide (PI) staining and flow cytometry. […] Cells were harvested, washed twice with PBS and cell death was analyzed by PI staining and flow cytometry. […]
Cells (6×10^5 /ml) were incubated in 500 μl serum-free medium with the peptide of interest for 6 h at 37°C in the presence of 5% CO2. The cells were then trypsinized, centrifuged (1500xg, 5 min), washed with PBS and analyzed for cell death using propidium iodide (PI) staining and flow cytometer (Beckton-Dickinson, San Jose, CA) and BD CellQuest Pro software. […]
On the technique in general: Flow cytometry measures light scatter and fluorescence of single cells or particles in a stream.

Assay [1] deals with primary brain cells (PBCs). Put plainly: Cell death by PI staining and flow cytometry, primary brain cells. Format: cell-based. The following applies: mouse PBCs, 6 h at 37°C, serum-free medium, PI staining; Fig 1I-1K. From the text:
Figure 1 VDAC1-based peptides induce dramatic cell death of several brain tumor-derived cell lines but to lesser extent in primary brain cells A. IHC staining of VDAC1 of human normal brain (n=13) or glioblastoma (n=41) in tissue array slides (Biomax), as described in Materials and methods available online in Supplemental information. Percentages of sections stained at the intensity indicated are shown. […] The VDAC1-derived sequences Δ(1-14)N-terminus and LP4 are in green and pink, respectively. The cell-penetrating peptides Antp and Tf are in orange and blue, respectively. The loop shape of LP4 stabilized by a tryptophan zipper is in purple. The amino acids of Δ(1-14)N-terminus, LP4 and Antp are in the D configuration. The sequences of D-LP4 and Retro-D-LP4 are presented below. C. Immunoblot analysis of VDAC1, HK-I, Bcl-2 and Transferrin receptor (TfR) expression in brain tumor-derived cell lines using specific antibodies, as described in Materials and methods available online in Supplemental information. […] Cells were harvested, washed twice with PBS and cell death was analyzed by propidium iodide (PI) staining and flow cytometry. H. IC50 values (μM) for pepdide inducing cell death as derived from D-G. The results shown correspond to means ± SD (n=3). […] Cells were harvested, washed twice with PBS and cell death was analyzed by PI staining and flow cytometry. […]
Cells (6×10^5 /ml) were incubated in 500 μl serum-free medium with the peptide of interest for 6 h at 37°C in the presence of 5% CO2. The cells were then trypsinized, centrifuged (1500xg, 5 min), washed with PBS and analyzed for cell death using propidium iodide (PI) staining and flow cytometer (Beckton-Dickinson, San Jose, CA) and BD CellQuest Pro software. Apoptotic cell death was also analyzed by PI and annexin V-FITC staining, and by acridine orange and ethidium bromide staining and light microscopy (Olympus LX2-KSP).

Structures are written as SMILES. Non-standard residues stand in square brackets, D forms with d. Residues, ends and D or L forms follow the SMILES beside them.

As to `CC[C@@H](C)[C@@H](NC(=O)[C@@H](CCCCN)NC(=O)[C@H](NC(=O)[C@@H](CCC(N)=O)NC(=O)[C@@H](CCCNC(=N)N)NC(=O)[C@@H](CC(C)C)NC(=O)CNC(=O)[C@@H](Cc1ccccc1)NC(=O)CNC(=O)[C@@H](Cc1ccc(O)cc1)NC(=O)CNC(=O)[C@@H](CCCCN)NC(=O)[C@H](NC(=O)[C@@H](Cc1ccccc1)NC(=O)[C@H](NC(=O)[C@@H](CC(=O)O)NC(=O)[C@H](N)CCCNC(=N)N)C(C)C)[C@H](C)O)[C@H](C)CC)C(=O)N[C@H](Cc1c[nH]c2ccccc12)C(=O)N[C@H](Cc1ccccc1)C(=O)N[C@H](CCC(N)=O)C(=O)N[C@H](CC(N)=O)C(=O)N[C@H](CCCNC(=N)N)C(=O)N[C@H](CCCNC(=N)N)C(=O)N[C@H](CCSC)C(=O)N[C@H](CCCCN)C(=O)N[C@H](Cc1c[nH]c2ccccc12)C(=O)N[C@H](CCCCN)C(=O)N[C@H](CCCCN)C(=O)O` [D-ΔN-Ter-Antp] (H-[dR][dD][dV][dF][dT][dK]G[dY]G[dF]G[dL][dR][dQ][dI][dK][dI][dW][dF][dQ][dN][dR][dR][dM][dK][dW][dK][dK]-OH; N-terminus and C-terminus assumed), the 50% inhibitory concentration (IC50) in the assay on U-118MG cells amounted to 5 ± 0.6 µM. Moreover, in assay [1], the “cell death in primary brain cells as compared to U-87MG cells” value (from here on “cell death … compared to U-87MG cells”) is “lesser extent”. On to `CC[C@H](C)[C@H](NC(=O)[C@H](Cc1ccc(O)cc1)NC(=O)[C@@H]1CCCN1C(=O)[C@H](CCCNC(=N)N)NC(=O)[C@H](Cc1c[nH]cn1)NC(=O)[C@H](CO)NC(=O)[C@H](Cc1c[nH]c2ccccc12)NC(=O)[C@@H](NC(=O)[C@H](Cc1c[nH]c2ccccc12)NC(=O)[C@H](CCC(=O)O)NC(=O)[C@@H](CCCCN)NC(=O)[C@@H](CCCCN)NC(=O)[C@@H](CC(C)C)NC(=O)[C@@H](CCC(=O)O)NC(=O)[C@H](NC(=O)[C@@H](C)NC(=O)[C@H](NC(=O)[C@@H](CC(N)=O)NC(=O)[C@@H](CC(C)C)NC(=O)[C@@H](C)NC(=O)[C@@H](Cc1c[nH]c2ccccc12)NC(=O)[C@H](NC(=O)[C@@H](C)NC(=O)CNC(=O)[C@@H](CC(N)=O)NC(=O)[C@@H](CO)NC(=O)[C@@H](CC(N)=O)NC(=O)[C@H](CCCCN)NC(=O)[C@H](Cc1c[nH]c2ccccc12)NC(=O)[C@@H](NC(=O)[C@H](Cc1c[nH]c2ccccc12)NC(=O)[C@@H](N)CCCCN)[C@@H](C)O)[C@H](C)O)C(C)C)[C@H](C)O)[C@@H](C)O)C(=O)N[C@@H](C)C(=O)N[C@@H](Cc1c[nH]cn1)C(=O)O` [Retro-Tf-D-LP4], for which the “cell death … compared to U-87MG cells” value in assay [1] was “lesser extent”. Turning to `CC[C@H](C)[C@H](NC(=O)[C@H](C)NC(=O)[C@@H](N)Cc1c[nH]cn1)C(=O)N[C@@H](Cc1ccc(O)cc1)C(=O)N1CCC[C@H]1C(=O)N[C@@H](CCCNC(=N)N)C(=O)N[C@@H](Cc1c[nH]cn1)C(=O)N[C@@H](CO)C(=O)N[C@@H](Cc1c[nH]c2ccccc12)C(=O)N[C@H](C(=O)N[C@@H](Cc1c[nH]c2ccccc12)C(=O)N[C@@H](CCC(=O)O)C(=O)N[C@H](CCCCN)C(=O)N[C@H](CCCCN)C(=O)N[C@H](CC(C)C)C(=O)N[C@H](CCC(=O)O)C(=O)N[C@@H](C(=O)N[C@H](C)C(=O)N[C@@H](C(=O)N[C@H](CC(N)=O)C(=O)N[C@H](CC(C)C)C(=O)N[C@H](C)C(=O)N[C@H](Cc1c[nH]c2ccccc12)C(=O)N[C@@H](C(=O)N[C@H](C)C(=O)NCC(=O)N[C@H](CC(N)=O)C(=O)N[C@H](CO)C(=O)N[C@H](CC(N)=O)C(=O)N[C@@H](CCCCN)C(=O)N[C@@H](Cc1c[nH]c2ccccc12)C(=O)N[C@H](C(=O)N[C@@H](Cc1c[nH]c2ccccc12)C(=O)N[C@@H](CCCCN)C(=O)O)[C@@H](C)O)[C@H](C)O)C(C)C)[C@H](C)O)[C@@H](C)O` [Tf-D-LP4], in the assay with U-118MG cells, the half-maximal inhibitory concentration (IC50) turned out to be 1.7 ± 0.3 µM. Besides, in assay [1], the “cell death … compared to U-87MG cells” value was “lesser extent”.

One may read the IC50 as the concentration that inhibits the measured activity by half.
